Test results taken from patent US20080146987A1, “TREATMENT OF A SKIN CONDITION USING A PIPERINE-BASED COMPOSITION IN CONJUNCTION WITH IRRADIATION” (OREGON HEALTH & SCIENCE UNIVERSITY, priority 2006, published 2008).

Test system: HRA.HRII-c/+/Skh hairless pigmented mice
Test: visual pigmentation score after topical compounds with or without UVB, 13-week protocols
Format: in vivo
Settings: HRA/Skh-II mice, four or more weeks
Protocol: Male and female inbred HRA.HRII-c/+/Skh hairless pigmented mice, age-matched (8-16 weeks old), were used in the following in vivo experiments for evaluation of pigmentation induced by piperine and/or UVR.
In one experiment, the compounds used included piperine, THP, CHP, and RCHP, each prepared in DMSO at a 50 mg/ml concentration, and applied to the backs of mice (n=4) twice daily on weekdays for 13 weeks, as shown in FIG. 3. As shown, Group A received treatment with compounds only from week 1-13. Group B was treated with compound from week 1-13, with additional UVB irradiation from weeks 5-13. Group F received UVB alone (no topical treatment) for 9 weeks, corresponding to weeks 5-13. Groups C, D and E were treated as Group B from weeks 1-7. All treatments was suspended for 3 weeks (8-10) and re-started as topical treatment with compounds only (Group C), UVB only (Group D), or topical treatment with UVB (Group E) from weeks 11-13.
Pigmentation was assessed visually by an investigator blinded to the treatment that the animals had received using the following scoring system: 0—no pigmentation; 1—first signs of pigmentation (spots); 2—light brown; 3—medium brown; 4—dark brown; 5—black. Scores obtained at the end of each week (Friday) are shown in FIG. 4 (piperine noted as PIP). […]

SMILES: O=C(CCCCc1ccc2c(c1)OCO2)NC1CCCCC1 [RCHP, 5-(3,4-methylenedioxyphenyl)-2,4-pentanoylcyclohexylamine]
- skin pigmentation in vivo after continuous topical application: stimulate the development of even skin pigmentation
